From PubChem BioAssay (NCI)
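Cells were grown in 96-well plates and exposed to each compound for 48 hours at five concentrations; endpoints were interpolated linearly between bracketing concentrations, or set to the highest concentration if not reached. GI50 = concentration required for 50% inhibition of growth. TGI marks complete inhibition of growth.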

Columns and labels:
Experiment in all cases: NCI-60 cell line screen, 48 h
SNB-75 CNS = system: SNB-75 CNS
HCC-2998 colon = system: HCC-2998 colon
OVCAR-3 ovarian = system: OVCAR-3 ovarian
SNB-19 CNS = system: SNB-19 CNS
CAKI-1 renal = system: CAKI-1 renal
MCF7 breast = system: MCF7 breast
M14 melanoma = system: M14 melanoma
MDA-MB-231 breast = system: MDA-MB-231 breast
SW-620 colon = system: SW-620 colon
CCRF-CEM leukemia = system: CCRF-CEM leukemia

COc1cccc(C(=O)C#Cc2cnc(OC)nc2OC)c1
TGI (SNB-75 CNS): 5.45 µM | TGI (HCC-2998 colon): 17.5 µM | TGI (OVCAR-3 ovarian): 3.62 µM | TGI (SNB-19 CNS): 34.8 µM | TGI (CAKI-1 renal): 4.39 µM | TGI (MCF7 breast): 1.28 µM | TGI (M14 melanoma): 6.28 µM | TGI (MDA-MB-231 breast): 7.42 µM | TGI (SW-620 colon): 1.94 µM

COc1cc(O)c2c(=O)c(OC)c(-c3ccc(OC)c(OC)c3)oc2c1
GI50 (HCC-2998 colon): 94.4 µM | TGI (HCC-2998 colon): > 100 µM | TGI (CCRF-CEM leukemia): > 100 µM | GI50 (OVCAR-3 ovarian): > 100 µM | TGI (OVCAR-3 ovarian): > 100 µM | GI50 (SNB-19 CNS): > 100 µM | TGI (SNB-19 CNS): > 100 µM | TGI (CAKI-1 renal): 57.1 µM | GI50 (MCF7 breast): 45.8 µM | TGI (MCF7 breast): > 100 µM | GI50 (M14 melanoma): > 100 µM | TGI (M14 melanoma): > 100 µM | GI50 (MDA-MB-231 breast): > 100 µM | TGI (MDA-MB-231 breast): > 100 µM | TGI (SW-620 colon): > 100 µM

Cc1cc(NS(=O)(=O)c2ccc(NC(=O)c3cccc4c(Nc5ccc(S(N)(=O)=O)cc5)c5ccccc5nc34)cc2)no1
TGI (SNB-75 CNS): > 100 µM | TGI (HCC-2998 colon): > 100 µM | TGI (CCRF-CEM leukemia): > 100 µM | TGI (OVCAR-3 ovarian): > 100 µM | TGI (SNB-19 CNS): > 100 µM | TGI (M14 melanoma): > 100 µM

C=C(C)[C@@H]1CC[C@]2(C(=O)OC)CC[C@]3(C)[C@H](CC[C@@H]4[C@@]5(C)CC[C@H](O)C(C)(C)[C@@H]5CC[C@]43C)[C@@H]12
TGI (SNB-75 CNS): 59 µM | TGI (CCRF-CEM leukemia): 48.9 µM | TGI (OVCAR-3 ovarian): 40.1 µM | TGI (SNB-19 CNS): 39.5 µM | TGI (CAKI-1 renal): 39.6 µM | TGI (MCF7 breast): 41.6 µM | TGI (M14 melanoma): > 100 µM | TGI (MDA-MB-231 breast): > 100 µM | TGI (SW-620 colon): 38.8 µM

O=c1[nH]c(Nc2nc3ccccc3[nH]2)nc(O)c1Cc1ccccc1
TGI (SNB-75 CNS): 86.4 µM | TGI (CCRF-CEM leukemia): > 100 µM | TGI (SNB-19 CNS): > 100 µM | TGI (CAKI-1 renal): > 100 µM | TGI (M14 melanoma): > 100 µM | TGI (MDA-MB-231 breast): > 100 µM | TGI (SW-620 colon): > 100 µM

CC(=O)OCC1OC(OCCCOP(=S)(OCCC#N)OCC2OC(n3ccc(N)nc3=O)C(OC(=O)c3ccccc3)C2OC(=O)c2ccccc2)C(OC(C)=O)C(OC(C)=O)C1OC(C)=O (stereo unspecified)
TGI (SNB-75 CNS): > 100 µM | TGI (HCC-2998 colon): > 100 µM | TGI (CCRF-CEM leukemia): > 100 µM | TGI (OVCAR-3 ovarian): > 100 µM | TGI (SNB-19 CNS): > 100 µM | TGI (CAKI-1 renal): > 100 µM | TGI (MCF7 breast): > 100 µM | TGI (M14 melanoma): > 100 µM | TGI (MDA-MB-231 breast): > 100 µM | TGI (SW-620 colon): > 100 µM

CN(CCCNC(=O)c1cc(-c2ccccc2)nc2ccccc12)CCCNC(=O)c1cc(-c2ccccc2)nc2ccccc12
TGI (SNB-75 CNS): 5.02 µM | TGI (HCC-2998 colon): 3.36 µM | TGI (CCRF-CEM leukemia): 17.6 µM | TGI (OVCAR-3 ovarian): 9.14 µM | TGI (SNB-19 CNS): 16.7 µM | TGI (CAKI-1 renal): 22.7 µM | TGI (MCF7 breast): 3.2 µM | TGI (M14 melanoma): 3.17 µM | TGI (MDA-MB-231 breast): 7.93 µM | TGI (SW-620 colon): 3.38 µM

CCN(CCN(CC)C(=O)Nc1ccccc1)C(=O)Nc1ccccc1
TGI (SNB-75 CNS): > 100 µM | TGI (HCC-2998 colon): > 100 µM | TGI (CCRF-CEM leukemia): > 100 µM | TGI (SNB-19 CNS): > 100 µM | TGI (MCF7 breast): > 100 µM | TGI (M14 melanoma): > 100 µM | TGI (MDA-MB-231 breast): > 100 µM | TGI (SW-620 colon): > 100 µM

O=C1Cc2c([nH]c3ccc(C(=O)O)cc23)-c2ccccc2N1
TGI (HCC-2998 colon): > 100 µM | TGI (CCRF-CEM leukemia): > 100 µM | TGI (OVCAR-3 ovarian): > 100 µM | TGI (SNB-19 CNS): > 100 µM | TGI (CAKI-1 renal): > 100 µM | TGI (MCF7 breast): > 100 µM | TGI (M14 melanoma): > 100 µM | TGI (MDA-MB-231 breast): > 100 µM | TGI (SW-620 colon): > 100 µM

CC[C@@]1(O)C(=O)OCc2c1cc1n(c2=O)Cc2c-1nc1ccccc1c2/C=N\NC(=O)C(N)CCSC (stereo partly specified)
TGI (SNB-75 CNS): 1.44 µM | TGI (HCC-2998 colon): 5.26 µM | TGI (CCRF-CEM leukemia): > 100 µM | TGI (OVCAR-3 ovarian): 3.08 µM | TGI (SNB-19 CNS): 0.722 µM | TGI (MCF7 breast): 1.84 µM | TGI (M14 melanoma): 0.473 µM | TGI (MDA-MB-231 breast): > 100 µM | TGI (SW-620 colon): > 41.1 µM

O=C(c1ccco1)N(C(=O)N1CCN(c2ccccc2)CC1)S(=O)(=O)c1ccccc1
TGI (SNB-75 CNS): 62.9 µM | TGI (HCC-2998 colon): > 100 µM | TGI (CCRF-CEM leukemia): 87.6 µM | TGI (OVCAR-3 ovarian): > 100 µM | TGI (SNB-19 CNS): 85.2 µM | TGI (CAKI-1 renal): 57.8 µM | TGI (MCF7 breast): 84 µM | TGI (M14 melanoma): 60.4 µM | TGI (MDA-MB-231 breast): > 100 µM | TGI (SW-620 colon): > 100 µM

O=NN(CCF)C(=O)NC1CCSCC1
TGI (SNB-75 CNS): > 100 µM | TGI (HCC-2998 colon): > 100 µM | TGI (CCRF-CEM leukemia): > 100 µM | TGI (OVCAR-3 ovarian): > 100 µM | TGI (SNB-19 CNS): > 100 µM | TGI (CAKI-1 renal): > 100 µM | TGI (MCF7 breast): > 100 µM | TGI (SW-620 colon): > 100 µM

CCC1C(c2ccccc2O)c2cc3c(cc2OC1N1CCOCC1)OCO3 (stereo unspecified)
TGI (SNB-75 CNS): 22.7 µM | TGI (HCC-2998 colon): 31 µM | TGI (CCRF-CEM leukemia): 32.7 µM | TGI (OVCAR-3 ovarian): 25.4 µM | TGI (SNB-19 CNS): 28.6 µM | TGI (CAKI-1 renal): 34.1 µM | TGI (MCF7 breast): 28.2 µM | TGI (M14 melanoma): 30.6 µM | TGI (MDA-MB-231 breast): 33.5 µM | TGI (SW-620 colon): 33 µM

NC(Cc1ccc(S(=O)(=O)O)cc1)C(=O)NC(Cc1ccc(S(=O)(=O)O)cc1)C(=O)NC(Cc1ccc(S(=O)(=O)O)cc1)C(=O)NC(Cc1ccc(S(=O)(=O)O)cc1)C(=O)O (stereo unspecified)
TGI (SNB-75 CNS): > 100 µM | TGI (HCC-2998 colon): > 100 µM | TGI (CCRF-CEM leukemia): > 100 µM | TGI (OVCAR-3 ovarian): > 100 µM | TGI (CAKI-1 renal): > 100 µM | TGI (MCF7 breast): > 100 µM | TGI (M14 melanoma): > 100 µM | TGI (MDA-MB-231 breast): > 100 µM | TGI (SW-620 colon): > 100 µM

CCN(CC)C1Oc2cc3c(cc2C(c2cccc(OC)c2OC)C1C)OCO3 (stereo unspecified)
TGI (SNB-75 CNS): 44.7 µM | TGI (HCC-2998 colon): 25.8 µM | TGI (CCRF-CEM leukemia): 8.48 µM | TGI (OVCAR-3 ovarian): 9.97 µM | TGI (SNB-19 CNS): 71.4 µM | TGI (CAKI-1 renal): 14.2 µM | TGI (MCF7 breast): 60.8 µM | TGI (M14 melanoma): 46.7 µM | TGI (MDA-MB-231 breast): 35.4 µM | TGI (SW-620 colon): 77 µM

C=C1CC[C@@H](C)[C@](C)(CCc2ccoc2)C/C=C\C=C/1C(=O)O
TGI (SNB-75 CNS): > 100 µM | TGI (CCRF-CEM leukemia): 90.3 µM | TGI (OVCAR-3 ovarian): 42.9 µM | TGI (SNB-19 CNS): > 100 µM | TGI (CAKI-1 renal): > 100 µM | TGI (MCF7 breast): > 100 µM | TGI (M14 melanoma): > 100 µM | TGI (MDA-MB-231 breast): > 100 µM | TGI (SW-620 colon): > 100 µM

COC(=O)C1CCC(=O)N1C(c1ccc2c(c1)OCO2)c1cc(OC)c(OC)c(OC)c1 (stereo unspecified)
TGI (SNB-75 CNS): > 100 µM | TGI (HCC-2998 colon): > 100 µM | TGI (CCRF-CEM leukemia): > 100 µM | TGI (OVCAR-3 ovarian): > 100 µM | TGI (SNB-19 CNS): > 100 µM | TGI (CAKI-1 renal): > 100 µM | TGI (MCF7 breast): > 100 µM | TGI (M14 melanoma): > 100 µM | TGI (MDA-MB-231 breast): > 100 µM | TGI (SW-620 colon): > 100 µM

COc1ccc(C2=NOC(N)(c3ccc(OC)cc3)C2)cc1 (stereo unspecified)
TGI (SNB-75 CNS): > 100 µM | TGI (HCC-2998 colon): > 100 µM | TGI (CCRF-CEM leukemia): > 100 µM | TGI (OVCAR-3 ovarian): > 100 µM | TGI (SNB-19 CNS): > 100 µM | TGI (CAKI-1 renal): > 100 µM | TGI (MCF7 breast): > 100 µM | TGI (M14 melanoma): > 100 µM | TGI (MDA-MB-231 breast): > 100 µM | TGI (SW-620 colon): > 100 µM

N#C/C(C(=S)NCc1ccccc1)=C(/N)N1CCCC1
TGI (HCC-2998 colon): > 100 µM | TGI (CCRF-CEM leukemia): > 100 µM | TGI (OVCAR-3 ovarian): > 100 µM | TGI (SNB-19 CNS): > 100 µM | TGI (CAKI-1 renal): > 100 µM | TGI (M14 melanoma): > 100 µM | TGI (MDA-MB-231 breast): > 100 µM | TGI (SW-620 colon): > 100 µM

Nc1nc2c(C(=O)O)c3ccc([N+](=O)[O-])cc3c(=O)n2c2ccccc12
TGI (SNB-75 CNS): 35.3 µM | TGI (HCC-2998 colon): > 100 µM | TGI (CCRF-CEM leukemia): > 100 µM | TGI (OVCAR-3 ovarian): 57 µM | TGI (SNB-19 CNS): 89.6 µM | TGI (CAKI-1 renal): > 100 µM | TGI (MCF7 breast): 49.1 µM | TGI (M14 melanoma): 64.2 µM | TGI (MDA-MB-231 breast): 79.1 µM | TGI (SW-620 colon): > 100 µM

COC(=O)C(Cc1c[nH]c2ccccc12)N=C1Nc2ccncc2S(=O)(=O)N1c1cccc(OC(C)C)c1 (stereo unspecified)
TGI (SNB-75 CNS): > 100 µM | TGI (HCC-2998 colon): > 100 µM | TGI (CCRF-CEM leukemia): > 100 µM | TGI (OVCAR-3 ovarian): > 100 µM | TGI (SNB-19 CNS): > 100 µM | TGI (CAKI-1 renal): > 100 µM | TGI (MCF7 breast): > 100 µM | TGI (M14 melanoma): > 100 µM | TGI (MDA-MB-231 breast): > 100 µM | TGI (SW-620 colon): > 100 µM
